Data reported in PubChem BioAssay AID248 (DTP/NCI, 2004).
Values joined by “and” are separate entries in the source; they are usually repeats but may differ in a detail not shown here. Equal values may be shown once. Inconclusive results and toxic doses are left out. Rule as the data show it: active = T/C of 150% or more; inactive = T/C below 125%.

Tested on: L1210 leukemia ip in BDF1 mice, survival T/C
Assay: NCI In Vivo Anticancer Drug Screen. Data for tumor model L1210 Leukemia (intraperitoneal) in B6D2F1 (BDF1) mice
Conditions: endpoint: mean survival time, higher = longer survival
Method in brief: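 Tumor was transplanted into mice, which were then dosed with test compound or vehicle alone. Survival was recorded for each group, and the treated figure was expressed relative to the control figure.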

[1] = dose: 100.0 mg/kg/injection, schedule: Q01DX009 (ip), vehicle: Klucel (hydroxypropylcellulose) (HPC)
[2] = dose: 100.0 mg/kg/injection, schedule: Q04DX003 (ip), vehicle: Klucel (hydroxypropylcellulose) (HPC)
[3] = dose: 200.0 mg/kg/injection, schedule: Q01DX009 (ip), vehicle: Klucel (hydroxypropylcellulose) (HPC)
[4] = dose: 200.0 mg/kg/injection, schedule: Q04DX003 (ip), vehicle: Klucel (hydroxypropylcellulose) (HPC)
[5] = dose: 100.0 mg/kg/injection, schedule: Q04DX002 (ip), vehicle: Klucel (hydroxypropylcellulose) (HPC)
[6] = dose: 400.0 mg/kg/injection, schedule: Q04DX003 (ip), vehicle: Klucel (hydroxypropylcellulose) (HPC)
[7] = dose: 100.0 mg/kg/injection, schedule: Q04DX003 (ip), vehicle: saline
[8] = dose: 200.0 mg/kg/injection, schedule: Q04DX003 (ip), vehicle: saline
[9] = dose: 400.0 mg/kg/injection, schedule: Q04DX003 (ip), vehicle: saline
[10] = dose: 100.0 mg/kg/injection, schedule: Q01DX009 (ip), vehicle: saline with Tween-80
[11] = dose: 200.0 mg/kg/injection, schedule: Q01DX009 (ip), vehicle: saline with Tween-80
[12] = dose: 400.0 mg/kg/injection, schedule: Q01DX009 (ip), vehicle: saline with Tween-80
[13] = dose: 100.0 mg/kg/injection, schedule: Q04DX003 (ip), vehicle: saline with Tween-80
[14] = dose: 200.0 mg/kg/injection, schedule: Q04DX003 (ip), vehicle: saline with Tween-80
[15] = dose: 400.0 mg/kg/injection, schedule: Q04DX003 (ip), vehicle: saline with Tween-80
[16] = dose: 100.0 mg/kg/injection, schedule: Q01DX001 (ip), vehicle: saline
[17] = dose: 200.0 mg/kg/injection, schedule: Q01DX001 (ip), vehicle: saline
[18] = dose: 400.0 mg/kg/injection, schedule: Q01DX001 (ip), vehicle: saline
[19] = dose: 100.0 mg/kg/injection, schedule: Q01DX001 (ip), vehicle: saline with Tween-80
[20] = dose: 200.0 mg/kg/injection, schedule: Q01DX001 (ip), vehicle: saline with Tween-80

Measured: T/C

NC(N)=N/N=C/c1c(O)ccc2ccccc12
inactive: dose: 15.0 mg/kg/injection, schedule: Q01DX Z (ip), vehicle: saline 99 % of control | dose: 15.6 mg/kg/injection, schedule: Q01DX010 (oral), vehicle: saline 117 % of control | dose: 31.0 mg/kg/injection, schedule: Q01DX Z (ip), vehicle: saline 94 % of control | dose: 31.3 mg/kg/injection, schedule: Q01DX010 (oral), vehicle: saline 118 % of control | dose: 63.0 mg/kg/injection, schedule: Q01DX Z (ip), vehicle: saline 86 % of control

COc1cc(NCc2ccccc2)ccc1NC(C)=O
inactive: dose: 15.0 mg/kg/injection, schedule: Q01DX001 (ip), vehicle: carboxymethylcellulose (CMC) 98 % of control | dose: 30.0 mg/kg/injection, schedule: Q01DX001 (ip), vehicle: carboxymethylcellulose (CMC) 110 % of control | dose: 75.0 mg/kg/injection, schedule: Q01DX001 (ip), vehicle: carboxymethylcellulose (CMC) 98 % of control

CN(C)C(=O)OCC[N+](C)(C)CCCCCC[N+](C)(C)CCOC(=O)N(C)C
inactive: dose: 12.0 mg/kg/injection, schedule: Q04DX003 (ip), vehicle: saline 105 % of control | dose: 25.0 mg/kg/injection, schedule: Q04DX003 (ip), vehicle: saline 96 % of control | dose: 50.0 mg/kg/injection, schedule: Q04DX003 (ip), vehicle: saline 97 % of control | dose: 75.0 mg/kg/injection, schedule: Q04DX003 (ip), vehicle: saline 92 % of control

CC(=O)N(C)c1ccccc1
inactive: dose: 100.0 mg/kg/injection, schedule: Q04DX002 (ip), vehicle: saline 99 % of control

COc1ccc(C)cc1NC(=S)NC(=O)c1cccc2ccccc12
inactive: dose: 50.0 mg/kg/injection, schedule: Q01DX009 (ip), vehicle: Klucel (hydroxypropylcellulose) (HPC) 93 % of control | [1] 87 % of control | [2] 95 % of control | [3] 88 % of control | [4] 94 % of control | dose: 300.0 mg/kg/injection, schedule: Q01DX009 (ip), vehicle: Klucel (hydroxypropylcellulose) (HPC) 104 % of control and 87 % of control

CC(=O)NC1C(NC(=O)C(CC(=O)O)NC(=O)OCc2ccccc2)OC(COC(C)=O)C(OC(C)=O)C1OC(C)=O (stereo unspecified)
inactive: dose: 50.0 mg/kg/injection, schedule: Q04DX002 (ip), vehicle: Klucel (hydroxypropylcellulose) (HPC) 94 % of control | [5] 91 % of control

CCCCCCCC(CC(=O)O)OC(=O)CC(CCCCCCC)OC1OC(C)C(O)C(O)C1OC1OC(C)C(O)C(O)C1O (stereo unspecified)
inactive: [5] 102 % of control | dose: 200.0 mg/kg/injection, schedule: Q04DX002 (ip), vehicle: Klucel (hydroxypropylcellulose) (HPC) 102 % of control

Cc1ccc(S(=O)(=O)N2CCOCC2)cc1
inactive: [2] 98 % of control | [4] 100 % of control | [6] 108 % of control

N#CC1CC2([N+](=O)[O-])c3ccccc3C1c1ccccc12 (stereo unspecified)
inactive: [1] 96 % of control | [2] 105 % of control | [7] 105 % of control | [3] 102 % of control | [4] 108 % of control | [8] 108 % of control | dose: 400.0 mg/kg/injection, schedule: Q01DX009 (ip), vehicle: Klucel (hydroxypropylcellulose) (HPC) 94 % of control | [6] 102 % of control | [9] 102 % of control

Cc1cc(C)c(-n2c(C)cc(C(=O)O)c2C)c(C)c1C(=O)O
inactive: dose: 100.0 mg/kg/injection, schedule: Q01DX001 (ip), vehicle: alcohol 102 % of control | dose: 200.0 mg/kg/injection, schedule: Q01DX001 (ip), vehicle: alcohol 96 % of control | dose: 400.0 mg/kg/injection, schedule: Q01DX001 (ip), vehicle: alcohol 97 % of control

CC[N+]1(CC)N=C([O-])N(C)C1=O
inactive: [10] 101 % of control | [11] 101 % of control | [12] 103 % of control

O=Cc1ccc(C(=O)O)cc1O
inactive: [13] 98 % of control | [14] 102 % of control

Brc1ccc(N=C2NN=CC2(c2ccccc2)c2ccccc2)cc1
inactive: dose: 100.0 mg/kg/injection, schedule: Q01DX001 (ip), vehicle: carboxymethylcellulose (CMC) 94 % of control | dose: 200.0 mg/kg/injection, schedule: Q01DX001 (ip), vehicle: carboxymethylcellulose (CMC) 88 % of control | dose: 400.0 mg/kg/injection, schedule: Q01DX001 (ip), vehicle: carboxymethylcellulose (CMC) 88 % of control

O=C(NC1CCC(CC2CCCCC2)CC1)c1ccccc1 (stereo unspecified)
inactive: [13] 92 % of control | [14] 97 % of control | [15] 113 % of control

NS(=O)(=O)c1ccc(NC(=O)c2ccc(C(=O)Nc3ccc(S(N)(=O)=O)cc3)cc2)cc1
inactive: [16] 100 % of control | [17] 100 % of control | [18] 100 % of control

C/C=C(\C)c1cc(=O)c2c(C)cc3c(c2o1)C(=O)c1c(O)c(C2CC(C)(N(C)C)C(O)C(C)O2)cc(C2CC(N(C)C)C(O)C(C)O2)c1C3=O (stereo unspecified)
inactive: [19] 120 % of control | [20] 114 % of control

COC1OC(CO)C(O)C([N+](=O)[O-])C1O (stereo unspecified)
inactive: [7] 98 % of control | [8] 102 % of control | [9] 105 % of control

CCOC(=O)C1=C(OCOC)CCC(C(C)(C)C)C1 (stereo unspecified)
inactive: dose: 100.0 mg/kg/injection, schedule: Q01DX001 (ip), vehicle: Klucel (hydroxypropylcellulose) (HPC) 92 % of control | dose: 200.0 mg/kg/injection, schedule: Q01DX001 (ip), vehicle: Klucel (hydroxypropylcellulose) (HPC) 98 % of control

O=[N+]([O-])c1ccc(N/N=C/CCl)c([N+](=O)[O-])c1
inactive: dose: 6.25 mg/kg/injection, schedule: Q01DX009 (ip), vehicle: saline with Tween-80 94 % of control and 98 % of control | dose: 6.25 mg/kg/injection, schedule: Q04DX003 (ip), vehicle: saline with Tween-80 99 % of control | dose: 12.5 mg/kg/injection, schedule: Q01DX009 (ip), vehicle: saline with Tween-80 102 % of control and 105 % of control | dose: 12.5 mg/kg/injection, schedule: Q04DX003 (ip), vehicle: saline with Tween-80 87 % of control | dose: 25.0 mg/kg/injection, schedule: Q01DX009 (ip), vehicle: saline with Tween-80 98 % of control and 103 % of control | dose: 25.0 mg/kg/injection, schedule: Q04DX003 (ip), vehicle: saline with Tween-80 91 % of control

O=P(NNc1ccccc1)(NNc1ccccc1)c1ccccc1
inactive: dose: 100.0 mg/kg/injection, schedule: Q01DX009 (ip), vehicle: carboxymethylcellulose (CMC) 90 % of control | dose: 200.0 mg/kg/injection, schedule: Q01DX009 (ip), vehicle: carboxymethylcellulose (CMC) 88 % of control | dose: 400.0 mg/kg/injection, schedule: Q01DX009 (ip), vehicle: carboxymethylcellulose (CMC) 92 % of control

O=c1oc2ccc3ccccc3c2c(-c2ccc(O)cc2)c1-c1ccccc1
inactive: [19] 89 % of control | [20] 92 % of control | dose: 400.0 mg/kg/injection, schedule: Q01DX001 (ip), vehicle: saline with Tween-80 92 % of control

COc1ccc(/C=C/C(=O)c2ccc3c(c2)OCO3)cc1OC
inactive: [10] 101 % of control | [11] 94 % of control | [12] 95 % of control

CC(=O)[O][Sn]([CH2]C1CCCCC1)([CH2]C1CCCCC1)[CH2]C1CCCCC1
inactive: dose: 6.25 mg/kg/injection, schedule: Q04DX002 (ip), vehicle: saline with Tween-80 96 % of control | dose: 12.5 mg/kg/injection, schedule: Q04DX002 (ip), vehicle: saline with Tween-80 96 % of control

CCN(CC)Cc1cc(Nc2cc(OC)cc3cccnc23)ccc1O
inactive: dose: 10.0 mg/kg/injection, schedule: Q01DX001 (ip), vehicle: saline 111 % of control | dose: 19.0 mg/kg/injection, schedule: Q01DX001 (ip), vehicle: saline 110 % of control | dose: 38.0 mg/kg/injection, schedule: Q01DX001 (ip), vehicle: saline 100 % of control

CCOC(=O)C(C(=O)OCC)=C(C)C
inactive: [10] 95 % of control | [13] 100 % of control | [11] 100 % of control | [14] 100 % of control | [12] 102 % of control | [15] 106 % of control

COc1cc(/C=N/NC(=O)N/N=C/c2cc(OC)c(OC)c(OC)c2)cc(OC)c1OC
inactive: [2] 105 % of control | [4] 105 % of control | [6] 108 % of control

S=c1[nH]c2ccccc2n1CCc1ccncc1
inactive: [16] 100 % of control | [17] 97 % of control | [18] 95 % of control
